Data as given in ChEMBL document CHEMBL5380777, “Efficacy, Mechanism, and Structure-Activity Relationship of 6-Methoxy Benzofuran Derivatives as a Useful Tool for Senile Osteoporosis” (J Med Chem, 2023).
Calls of active or inactive are those of the source. No cut-off for these calls is given here.

Tests used:
[1] = AUC (0 to infinity) in Sprague-Dawley rat by measuring metabolite 6-methoxybenzofuran-2-carboxylic acid at 10 mg/kg, po; type: ADME, organism-based; design: dose 10 mg/kg, route po; conditions: in vivo
[2] = Apparent permeability from apical to basolateral side in human Caco-2 cells incubated upto 95 mins by LC-MS/MS analysis; type: ADME, cell-based; conditions: read-out: permeability
MC3T3-E1 [3] = assay: Induction of ALP activity in mouse MC3T3-E1 cells in osteogenic differentiation culture at 1 uM measured on day 7; type: functional, cell-based; conditions: time 7.0 day
hERG (KCNH2) [4] = target: T1, hERG (KCNH2) (Homo sapiens, UniProt Q12809); assay: Inhibition of human ERG stably expressed in CHO cells at 10 uM by whole-cell patch clamp method relative to control; type: toxicity, cell-based; conditions: CHO cells stably expressing human ERG
T1 sequence (Q12809 whole entry): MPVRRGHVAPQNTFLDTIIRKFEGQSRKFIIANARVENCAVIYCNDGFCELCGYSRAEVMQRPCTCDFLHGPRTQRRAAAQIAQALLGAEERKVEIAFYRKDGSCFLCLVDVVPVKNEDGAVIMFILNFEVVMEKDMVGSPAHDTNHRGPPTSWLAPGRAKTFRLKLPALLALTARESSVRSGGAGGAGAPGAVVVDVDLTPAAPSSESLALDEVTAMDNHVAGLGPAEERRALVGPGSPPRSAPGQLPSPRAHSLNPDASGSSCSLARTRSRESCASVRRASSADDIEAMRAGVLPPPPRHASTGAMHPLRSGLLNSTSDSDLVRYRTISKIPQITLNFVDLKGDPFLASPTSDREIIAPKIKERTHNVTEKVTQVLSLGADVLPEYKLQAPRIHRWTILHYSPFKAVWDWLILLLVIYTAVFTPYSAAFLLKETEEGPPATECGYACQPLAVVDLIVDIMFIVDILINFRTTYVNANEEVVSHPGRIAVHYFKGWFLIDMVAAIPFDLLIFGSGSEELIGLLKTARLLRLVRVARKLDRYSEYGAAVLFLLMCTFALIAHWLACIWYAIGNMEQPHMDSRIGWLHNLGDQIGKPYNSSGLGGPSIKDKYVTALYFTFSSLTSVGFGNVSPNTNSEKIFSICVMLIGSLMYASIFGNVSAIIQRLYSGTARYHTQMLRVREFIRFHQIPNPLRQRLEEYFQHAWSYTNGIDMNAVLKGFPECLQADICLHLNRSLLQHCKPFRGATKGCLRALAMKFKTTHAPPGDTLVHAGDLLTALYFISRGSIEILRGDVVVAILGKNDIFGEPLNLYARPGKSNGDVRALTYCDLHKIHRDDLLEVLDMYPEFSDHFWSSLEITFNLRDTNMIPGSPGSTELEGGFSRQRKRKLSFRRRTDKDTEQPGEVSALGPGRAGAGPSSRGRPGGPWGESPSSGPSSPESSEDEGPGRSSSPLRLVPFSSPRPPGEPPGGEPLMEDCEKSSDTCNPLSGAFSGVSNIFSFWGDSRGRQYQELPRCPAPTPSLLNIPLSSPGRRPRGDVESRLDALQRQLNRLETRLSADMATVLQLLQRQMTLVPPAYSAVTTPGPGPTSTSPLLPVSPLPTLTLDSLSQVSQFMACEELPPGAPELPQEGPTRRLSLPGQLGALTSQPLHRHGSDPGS

[5] = Cmax in Sprague-Dawley rat by measuring metabolite 6-methoxybenzofuran-2-carboxylic acid at 10 mg/kg, po; type: ADME, organism-based; design: dose 10 mg/kg, route po; conditions: in vivo
Danio rerio [6] = organism: Danio rerio; assay: Anti osteoporosis activity in prednisone induced wildtype 3 days post-fertilization AB zebrafish osteoporosis model assessed as increase in bone fluorescence intensity; type: functional, organism-based; conditions: dose 0.078-1.25 µM
Cytochrome P450 1A2 = target: T2, Cytochrome P450 1A2 (Homo sapiens, UniProt P05177); assay: Inhibition of CYP1A2 (unknown origin) using phenacetin as substrate (reference value: 0.0292 uM); type: ADME
T2 sequence (P05177 whole entry): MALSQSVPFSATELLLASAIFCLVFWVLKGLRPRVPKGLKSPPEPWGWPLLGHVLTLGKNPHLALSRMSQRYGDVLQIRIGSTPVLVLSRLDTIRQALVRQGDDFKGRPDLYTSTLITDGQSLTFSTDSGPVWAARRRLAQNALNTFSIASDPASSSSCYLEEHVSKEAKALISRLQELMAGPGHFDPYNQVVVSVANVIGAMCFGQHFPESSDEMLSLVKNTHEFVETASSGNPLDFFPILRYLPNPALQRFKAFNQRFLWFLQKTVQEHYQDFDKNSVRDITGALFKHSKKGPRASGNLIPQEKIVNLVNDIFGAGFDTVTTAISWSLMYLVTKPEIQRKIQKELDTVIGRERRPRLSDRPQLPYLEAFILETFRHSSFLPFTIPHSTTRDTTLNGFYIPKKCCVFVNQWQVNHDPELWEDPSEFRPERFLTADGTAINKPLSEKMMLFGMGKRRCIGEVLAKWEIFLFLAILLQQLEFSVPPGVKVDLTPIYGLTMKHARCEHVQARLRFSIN

hERG (KCNH2) [7] = target: T1, hERG (KCNH2); assay: Inhibition of human ERG stably expressed in CHO cells at 0.3 uM by whole-cell patch clamp method relative to control; type: toxicity, cell-based; conditions: CHO cells stably expressing human ERG
Cytochrome P450 3A4 [8] = target: T3, Cytochrome P450 3A4 (Homo sapiens, UniProt P08684); assay: Inhibition of CYP3A4 (unknown origin) using midazolam as substrate (reference value: 0.0413 uM); type: ADME
T3 sequence (P08684 whole entry): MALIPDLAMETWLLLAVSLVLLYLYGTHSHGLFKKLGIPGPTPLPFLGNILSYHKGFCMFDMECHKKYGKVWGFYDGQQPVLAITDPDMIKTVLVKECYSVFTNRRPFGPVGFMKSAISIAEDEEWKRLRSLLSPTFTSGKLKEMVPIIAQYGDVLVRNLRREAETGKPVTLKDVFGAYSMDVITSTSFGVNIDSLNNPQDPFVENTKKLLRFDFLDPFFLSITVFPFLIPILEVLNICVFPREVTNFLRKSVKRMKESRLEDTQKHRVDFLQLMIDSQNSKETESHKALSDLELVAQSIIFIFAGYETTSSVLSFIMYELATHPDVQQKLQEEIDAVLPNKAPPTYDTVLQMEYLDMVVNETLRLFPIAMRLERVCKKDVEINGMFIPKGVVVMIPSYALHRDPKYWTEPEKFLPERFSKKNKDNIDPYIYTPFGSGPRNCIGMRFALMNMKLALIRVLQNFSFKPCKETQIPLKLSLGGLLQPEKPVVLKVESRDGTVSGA

[9] = Oral bioavailability in Sprague-Dawley rat by measuring metabolite 6-methoxybenzofuran-2-carboxylic acid at 10 mg/kg; type: ADME, organism-based; conditions: in vivo
[10] = Permeability from basolateral to apical side in human Caco-2 cells assessed as recovery incubated upto 95 mins by LC-MS/MS analysis relative control; type: ADME, cell-based; conditions: read-out: Drug recovery
[11] = AUC (0 to t) in Sprague-Dawley rat by measuring metabolite 6-methoxybenzofuran-2-carboxylic acid at 2 mg/kg, iv; type: ADME, organism-based; design: dose 2 mg/kg, route iv; conditions: in vivo
Danio rerio [12] = organism: Danio rerio; assay: Anti osteoporosis activity in prednisone induced wildtype 3 days post-fertilization AB zebrafish osteoporosis model assessed as increase in osteoblast by measuring fluorescence intensity; type: functional, organism-based; conditions: dose 0.078-1.25 µM
hERG (KCNH2) [13] = target: T1, hERG (KCNH2); assay: Inhibition of human ERG stably expressed in CHO cells at 0.1 uM by whole-cell patch clamp method relative to control; type: toxicity, cell-based; conditions: CHO cells stably expressing human ERG
[14] = AUC (0 to infinity) in Sprague-Dawley rat by measuring metabolite 6-methoxybenzofuran-2-carboxylic acid at 2 mg/kg, iv; type: ADME, organism-based; design: dose 2 mg/kg, route iv; conditions: in vivo
Cytochrome P450 2C19 = Cytochrome P450 2C19 (Homo sapiens, UniProt P33261); assay: Inhibition of CYP2C19 (unknown origin) using mephenytoin as substrate (reference value: 2.77 uM); type: ADME
Cytochrome P450 2C19, sequence (P33261 whole entry): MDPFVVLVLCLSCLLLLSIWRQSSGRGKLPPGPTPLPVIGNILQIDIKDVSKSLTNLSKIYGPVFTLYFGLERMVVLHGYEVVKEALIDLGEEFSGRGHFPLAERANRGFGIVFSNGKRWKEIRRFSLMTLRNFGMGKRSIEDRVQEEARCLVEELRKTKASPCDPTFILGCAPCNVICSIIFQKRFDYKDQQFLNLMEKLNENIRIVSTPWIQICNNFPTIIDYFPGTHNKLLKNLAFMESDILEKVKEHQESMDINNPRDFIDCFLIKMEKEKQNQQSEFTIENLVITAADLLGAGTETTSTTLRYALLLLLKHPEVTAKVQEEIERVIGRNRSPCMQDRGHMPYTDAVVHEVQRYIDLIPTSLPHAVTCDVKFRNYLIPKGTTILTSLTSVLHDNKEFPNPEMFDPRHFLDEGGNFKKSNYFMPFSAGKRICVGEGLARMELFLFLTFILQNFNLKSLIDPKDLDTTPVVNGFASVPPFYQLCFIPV

hERG (KCNH2) [15] = target: T1, hERG (KCNH2); assay: Inhibition of human ERG stably expressed in CHO cells at 3 uM by whole-cell patch clamp method relative to control; type: toxicity, cell-based; conditions: CHO cells stably expressing human ERG
[16] = Permeability from apical to basolateral side in human Caco-2 cells assessed as recovery incubated upto 95 mins by LC-MS/MS analysis relative control; type: ADME, cell-based; conditions: read-out: Drug recovery
[17] = Tmax in Sprague-Dawley rat by measuring metabolite 6-methoxybenzofuran-2-carboxylic acid at 10 mg/kg, po; type: ADME, organism-based; conditions: in vivo
[18] = Half life in Sprague-Dawley rat by measuring metabolite 6-methoxybenzofuran-2-carboxylic acid at 10 mg/kg, po; type: ADME, organism-based; conditions: in vivo
hERG (KCNH2) [19] = target: T1, hERG (KCNH2); assay: Inhibition of human ERG stably expressed in CHO cells at 1 uM by whole-cell patch clamp method relative to control; type: toxicity, cell-based; conditions: CHO cells stably expressing human ERG
[20] = AUC (0 to t) in Sprague-Dawley rat by measuring metabolite 6-methoxybenzofuran-2-carboxylic acid at 10 mg/kg, po; type: ADME, organism-based; design: dose 10 mg/kg, route po; conditions: in vivo
Cytochrome P450 2C9 = Cytochrome P450 2C9 (Homo sapiens, UniProt P11712); assay: Inhibition of CYP2C9 (unknown origin) using tolbutamide as substrate (reference value: 1.9 uM); type: ADME
Cytochrome P450 2C9, sequence (P11712 whole entry): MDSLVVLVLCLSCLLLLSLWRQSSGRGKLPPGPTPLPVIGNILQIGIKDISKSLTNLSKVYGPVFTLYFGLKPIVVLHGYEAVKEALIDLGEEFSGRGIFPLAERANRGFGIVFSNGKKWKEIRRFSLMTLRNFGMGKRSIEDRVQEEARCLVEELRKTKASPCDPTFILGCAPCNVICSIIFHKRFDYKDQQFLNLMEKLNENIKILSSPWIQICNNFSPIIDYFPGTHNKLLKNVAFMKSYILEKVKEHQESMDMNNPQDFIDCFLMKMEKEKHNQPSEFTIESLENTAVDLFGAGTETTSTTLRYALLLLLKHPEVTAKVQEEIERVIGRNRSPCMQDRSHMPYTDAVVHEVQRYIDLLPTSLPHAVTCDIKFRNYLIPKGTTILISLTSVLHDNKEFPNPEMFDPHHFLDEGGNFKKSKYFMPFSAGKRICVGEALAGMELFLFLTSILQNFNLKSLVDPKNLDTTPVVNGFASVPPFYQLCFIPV

[21] = MRT (0 to infinity) in Sprague-Dawley rat by measuring metabolite 6-methoxybenzofuran-2-carboxylic acid at 10 mg/kg, po; type: ADME, organism-based; conditions: in vivo
[22] = Efflux ratio of apparent permeability from basolateral side to apical side over apical side to basolateral side in human Caco-2 cells; type: ADME, cell-based
Danio rerio [23] = organism: Danio rerio; assay: Anti osteoporosis activity in prednisone induced wildtype 3 days post-fertilization AB zebrafish osteoporosis model assessed as increase in bone fluorescence intensity (RVB = 13620 +/- 1692); type: functional
Danio rerio [24] = organism: Danio rerio; assay: Anti osteoporosis activity in prednisone induced wildtype 3 days post-fertilization AB zebrafish osteoporosis model assessed as increase in bone mass at 1.25 uM relative to normal control group; type: functional, organism-based
Cytochrome P450 3A4 [25] = target: T3, Cytochrome P450 3A4; assay: Inhibition of CYP3A4 (unknown origin) using testosterone as substrate (reference value: 0.0227 uM); type: ADME
[26] = Cmax in Sprague-Dawley rat by measuring metabolite 6-methoxybenzofuran-2-carboxylic acid at 2 mg/kg, iv; type: ADME, organism-based; design: dose 2 mg/kg, route iv; conditions: in vivo
[27] = Apparent permeability from basolateral to apical side in human Caco-2 cells incubated upto 95 mins by LC-MS/MS analysis; type: ADME, cell-based; conditions: read-out: permeability
[28] = Volume of distribution at steady state in Sprague-Dawley rat by measuring metabolite 6-methoxybenzofuran-2-carboxylic acid at 2 mg/kg, iv; type: ADME, organism-based; conditions: in vivo
[29] = MRT (0 to infinity) in Sprague-Dawley rat by measuring metabolite 6-methoxybenzofuran-2-carboxylic acid at 2 mg/kg, iv; type: ADME, organism-based; conditions: in vivo
Danio rerio [30] = organism: Danio rerio; assay: Anti osteoporosis activity in prednisone induced wildtype 3 days post-fertilization AB zebrafish osteoporosis model assessed as increase in bone mass; type: functional, organism-based; conditions: dose 0.078-1.25 µM
[31] = Half life in Sprague-Dawley rat by measuring metabolite 6-methoxybenzofuran-2-carboxylic acid at 2 mg/kg, iv; type: ADME, organism-based; conditions: in vivo
Cytochrome P450 2D6 = Cytochrome P450 2D6 (Homo sapiens, UniProt P10635); assay: Inhibition of CYP2D6 (unknown origin) using dextromethorphan as substrate (reference value: 0.0445 uM); type: ADME
Cytochrome P450 2D6, sequence (P10635 whole entry): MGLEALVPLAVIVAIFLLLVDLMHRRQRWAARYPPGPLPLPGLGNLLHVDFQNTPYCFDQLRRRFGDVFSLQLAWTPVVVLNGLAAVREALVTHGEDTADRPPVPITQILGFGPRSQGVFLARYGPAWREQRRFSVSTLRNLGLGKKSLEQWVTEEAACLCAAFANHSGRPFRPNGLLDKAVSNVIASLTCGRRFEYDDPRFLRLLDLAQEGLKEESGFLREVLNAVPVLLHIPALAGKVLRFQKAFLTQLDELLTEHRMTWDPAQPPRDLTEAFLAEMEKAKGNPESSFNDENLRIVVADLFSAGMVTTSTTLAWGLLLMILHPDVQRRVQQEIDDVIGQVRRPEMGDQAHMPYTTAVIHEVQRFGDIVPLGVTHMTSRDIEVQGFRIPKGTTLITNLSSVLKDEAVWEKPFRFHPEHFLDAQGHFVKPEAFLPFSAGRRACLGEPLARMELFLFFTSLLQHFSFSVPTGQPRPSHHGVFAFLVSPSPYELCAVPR

MC3T3-E1 [32] = assay: Cytotoxicity against mouse MC3T3-E1 cells; type: toxicity, cell-based

## COc1ccc2cc(C(=O)OCCN3CCOCC3)oc2c1
[1]
  AUCt: 25873 ng·h/mL
[2]
  Papp A→B at 1.583 h: 3.35 ×10⁻⁶ cm/s
MC3T3-E1 [3]
  Activity: Active
hERG (KCNH2) [4]
  inhibition at 10 µM: 20.6%
[5]
  Cmax: 10380 ng/mL
Danio rerio [6]
  Activity: Dose-Dependent Effect
Cytochrome P450 1A2
  IC50: 17 µM
hERG (KCNH2) [7]
  inhibition at 0.3 µM: 2.36%
Cytochrome P450 3A4 [8]
  IC50: > 25 µM
[9]
  F: 113%
[10]
  recovery at 1.583 h: 74.3%
[11]
  AUC: 4557 ng·h/mL
Danio rerio [12]
  Activity: Dose-Dependent Effect
hERG (KCNH2) [13]
  inhibition at 0.1 µM: 4.69%
[14]
  AUC: 4635 ng·h/mL
Cytochrome P450 2C19
  IC50: > 25 µM
hERG (KCNH2) [15]
  inhibition at 3 µM: 9.81%
[16]
  recovery at 1.583 h: 22.7%
[17]
  Tmax: 0.25 h
[18]
  t1/2: 3.07 h
hERG (KCNH2) [19]
  inhibition at 1 µM: 6.15%
[20]
  AUCt: 25724 ng·h/mL
Cytochrome P450 2C9
  IC50: > 25 µM
[21]
  MRT: 2.26 h
[22]
  efflux ratio: 1.65
Danio rerio [23]
  Flu intensity: 33746
Danio rerio [24]
  Activity: Active
Cytochrome P450 3A4 [25]
  IC50: > 25 µM
[26]
  Cmax: 3943 ng/mL
[27]
  Papp B→A at 1.583 h: 5.53 ×10⁻⁶ cm/s
[28]
  Vdss: 0.545 L/kg
[29]
  MRT: 1.25 h
Danio rerio [30]
  Activity: Dose-Dependent Effect
[31]
  t1/2: 2.15 h
Cytochrome P450 2D6
  IC50: > 25 µM

## COc1cc(N)c(Cl)cc1C(=O)NC1CCN(CCCOc2ccc(F)cc2)CC1OC (stereo not drawn) [CISAPRIDE]
hERG (KCNH2) [7]
  inhibition at 0.3 µM: 98.2%

## COc1ccc2cc(C(=O)NCCCN(C)C)oc2c1
Danio rerio [23]
  Flu intensity: 18114

## COc1ccc2cc(C(=O)NCCN3CCCC3)oc2c1
Danio rerio [23]
  Flu intensity: 20961

## COc1ccc2cc(C(=O)N3CCC(c4ccc(F)cc4)CC3)oc2c1
Danio rerio [23]
  Flu intensity: 13963

## COc1ccc2cc(C(=O)NCCN3CCCCC3)oc2c1
Danio rerio [23]
  Flu intensity: 23225

## COc1ccc2cc(C(=O)OCCN3CCCCC3)oc2c1
Danio rerio [23]
  Flu intensity: 23536

## COc1ccc2cc(C(=O)N[C@H](Cc3ccccc3)C(=O)O)oc2c1
Danio rerio [23]
  Flu intensity: 27422

## COc1ccc2cc(C(=O)N[C@@H](C(=O)O)C(C)C)oc2c1
MC3T3-E1 [3]
  Activity: Active
Danio rerio [23]
  Flu intensity: 30880

## CCN(CC)CCCCNC(=O)c1cc2ccc(OC)cc2o1
Danio rerio [23]
  Flu intensity: 21289

## COc1ccc2cc(C(=O)NCCN3CCOCC3)oc2c1
Danio rerio [23]
  Flu intensity: 26682

## COc1ccc2cc(C(=O)NCCN3CCNCC3)oc2c1
Danio rerio [23]
  Flu intensity: 21709

## COc1ccc2cc(C(=O)NCC(=O)NCCN(C)C)oc2c1
Danio rerio [23]
  Flu intensity: 23919

## COc1ccc2cc(C(=O)N3CCN(C)CC3)oc2c1
Danio rerio [23]
  Flu intensity: 23902

## COc1ccc2cc(C(=O)NCC(=O)OCCN(C)C)oc2c1
Danio rerio [23]
  Flu intensity: 26758

## COc1ccc2cc(C(=O)NCC(=O)O)oc2c1
Danio rerio [23]
  Flu intensity: 22567

## COc1ccc2cc(C(=O)N3CCC(O)CC3)oc2c1
Danio rerio [23]
  Flu intensity: 20648

## COc1ccc2cc(C(=O)N3CCC(c4ccncc4)CC3)oc2c1
MC3T3-E1 [32]
  Activity: Toxic
Danio rerio [23]
  Flu intensity: 30379

## COc1ccc2cc(C(=O)N[C@H](CC(C)C)C(=O)O)oc2c1
Danio rerio [23]
  Flu intensity: 20236

## CCN(CC)CCCNC(=O)c1cc2ccc(OC)cc2o1
MC3T3-E1 [3]
  Activity: Active
Danio rerio [23]
  Flu intensity: 31394

## COc1ccc2cc(C(=O)N3CCC(C(F)(F)F)CC3)oc2c1
Danio rerio [23]
  Flu intensity: 16975

## COc1ccc2cc(C(=O)NCC(=O)NCCN3CCCC3)oc2c1
Danio rerio [23]
  Flu intensity: 21953

## CC(O)(P(=O)([O-])O)P(=O)([O-])O.[Na+].[Na+] [ETIDRONATE DISODIUM]
Danio rerio [23]
  Flu intensity: 23897

## COc1ccc2cc(C(=O)NCCCCN(C)C)oc2c1
Danio rerio [23]
  Flu intensity: 25439

## COc1ccc2cc(C(=O)OCCN3CCCC3)oc2c1
Danio rerio [23]
  Flu intensity: 24697

## COc1ccc2cc(C(=O)NC3CCC(O)CC3)oc2c1 (stereo not drawn)
Danio rerio [23]
  Flu intensity: 25882

## COc1ccc2cc(C(=O)OCCN3CCN(C)CC3)oc2c1
Danio rerio [23]
  Flu intensity: 23765

## COc1ccc2cc(C(=O)NCC(=O)NCCN3CCCCC3)oc2c1
MC3T3-E1 [3]
  Activity: Active
Danio rerio [23]
  Flu intensity: 31141

## COc1ccc2cc(C(=O)N[C@H](C)C(=O)O)oc2c1
Danio rerio [23]
  Flu intensity: 17768

## COc1ccc2cc(C(=O)NCCN3CCN(C)CC3)oc2c1
Danio rerio [23]
  Flu intensity: 25904
